# Measurements: patent publication US10213397B2, “Microtubule polymerization modulators for treating LMNA-related dilated cardiomyopathy” (priority 2016, dated 2019)
# “Also recorded” adds a separate entry of the source.
# Key:
# [1] = tested on: patient diagnosed with LMNA-related DCM; test: Treatment of patient diagnosed with LMNA-related dilated cardiomyopathy (case report); assay type: in vivo, human; conditions: for patient's condition: carvedilol 25 mg twice daily with eplerenone 25 mg once daily, before colchicine
# Excerpt: In August of 2013 patient […] was diagnosed with LMNA-related DCM, also known as “cardiac laminopathy,” an inherited degenerative cardiac disorder characterized by left ventricular dilation, arrhythmia, and cardiac enlargement. It is a subset of “non-ischemic cardiomyopathy.”
# The patient worked as a college professor and the patient's condition worsened throughout the 2013-14 school year. The patient was heading toward long-term disability due to fatigue, shortness of breath and palpitations, all due to their progressive heart failure. In October, an implantable defibrillator was placed in the patient's chest, and the patient was hospitalized twice for cardiac arrhythmias (i.e., once for excessive premature ventricular contractions or TVCs′, and once for cardiac resynchronization for atrial fibrillation). Because conventional heart failure therapy appeared unsuccessful at ameliorating disease effects, the patient undertook a comprehensive review of literature on laminopathy to find a novel treatment.
# In June 2014, the patient began experiencing PVC-burden cardiomyopathy, a secondary myopathy caused by a heavy premature ventricular contraction (PVC) load. Their PVCs were measured at 52,000 over a 48-hour holter-monitor. Given their deteriorating condition, now with NYHA class III heart failure, they sought care at Northwestern University's Bluhm Cardiovascular Institute in Chicago with Dr. Jane Wilcox.
# Dr. Wilcox adjusted the patient's existing medication regimen to reflect best practice for treating dilated cardiomyopathy. The patient began taking 25 mg twice daily of carvedilol, as well as 25 mg once daily of eplerenone.
# In January 2015, the patient underwent an unsuccessful procedure to ablate cardiac tissue causing their PVC burden. Their heart ejection fraction (EF), previously measured at 55%, was now measured at 45%. Later that month, the patient was hospitalized for Sotalol (antiarrhythmic drug) initiation. Sotalol was also unsuccessful in treating the patient's PVCs.
# The patient had been very symptomatic with PVC's and could tell when his they were having PVC's.
# Further, the patient was now considered to have NYHA class I heart failure symptoms and able to resume all previous activities, including running and biking, whereas previously the patient was NYHA class III (i.e., heart failure symptoms with mild activity).
# As of July 2016, the patient stopped taking Sotalol because it seemed superfluous in respect to the patient's carvedilol regimen, and the patient has continued to be NYHA class I (i.e. asymptomatic).
# LMNA cells = conditions: laboratory studies, reference 4 (Larrieu et al.); cited from earlier work
# [2] = tested on: familial Mediterranean fever (FMF); conditions: long-term use; reference 3; cited from earlier work
# [3] = cited from earlier work
smiles,measurement,setting,value
CC(C)NCC(O)c1ccc(NS(C)(=O)=O)cc1 (stereo not drawn) [Sotalol],treatment of the patient's PVCs,"[1]; January 2015, before colchicine",unsuccessful
COc1ccccc1OCCNCC(O)COc1cccc2[nH]c3ccccc3c12 (stereo not drawn) [carvedilol],patient's condition,[1],continued to deteriorate
COc1cc2c(c(OC)c1OC)-c1ccc(OC)c(=O)cc1[C@@H](NC(C)=O)CC2 [colchicine],negative side effects,"[1]; 1.8 mg colchicine twice daily (3.6 mg total dose), monitored for myelosuppression",no negative side effects; also recorded: has not experienced negative side effects
same,NYHA class of heart failure symptoms,"[1]; August 2015, previously NYHA class III",NYHA class I
same,"improvement in cardiac output, measured non-invasively using LVOT velocity time integral (VTI)","[1]; August 2015 echocardiogram, colchicine started early 2015",20%
same,ventricular remodeling (left ventricular size and volume),[1]; February 2016 echocardiogram,positive ventricular remodeling
same,cardiac output (LVOT),"[1]; February 2016 echocardiogram, LVOT initially was 15",22
same,ejection fraction,"[1]; February 2016 echocardiogram, improvement from 40-45%",55%
same,NYHA class of heart failure symptoms,"[1]; as of July 2016, after stopping eplerenone and Sotalol",NYHA class I
same,general condition / overall health of the patient,"[1]; on colchicine, at higher doses than typically used for gout",dramatic recovery; also recorded: continued to improve
same,PVC volume,"[1]; within 48 hours of colchicine administration, patient with LMNA-related DCM",diminished considerably
same,nuclear shape defects characteristic of LMNA cells,LMNA cells,rescue nuclear shape defects
same,"treatment of FMF (preventing attacks, reduction of symptoms, prevention and treatment of amyloidosis)",[2],very effective
same,toxicity with P-gp or strong CYP3A4 inhibitors,"[3]; patients with renal or hepatic impairment, colchicine taken in therapeutic doses",life-threatening and fatal colchicine toxicity
same,"frequency of agranulocytosis, thrombocytopenia, aplastic anemia, leukopenia, granulocytopenia, pancytopenia (hematologic, rare)",[3]; reported adverse reactions,less than 0.1%
same,"frequency of alopecia (dermatologic, rare)",[3]; reported adverse reactions,less than 0.1%
same,"frequency of azoospermia, oligospermia (genitourinary, rare)",[3]; reported adverse reactions,less than 0.1%
same,"frequency of myopathy, rhabdomyolysis, elevated CPK, myotonia, muscle weakness, muscle pain (musculoskeletal, rare)",[3]; reported adverse reactions,less than 0.1%
same,"frequency of pharyngolaryngeal pain (respiratory, common)",[3]; reported adverse reactions,3%
COC(=O)[C@@H]1CC2=CC(=O)CC[C@]2(C)[C@@]23O[C@@H]2C[C@@]2(C)[C@@H](CC[C@@]24CCC(=O)O4)[C@H]13 [eplerenone],reason for ceasing drug (potassium levels),[1]; March 2016,elevated potassium levels
same,patient's condition,[1],continued to deteriorate
